≈ marks a conversion by molar mass, not a printed value.
Test system: Mycobacterium tuberculosis
Experiment: Antibacterial activity against multidrug-resistant Mycobacterium tuberculosis H37Rv ATCC 27294 after 28 days by agar dilution method
Assay type: functional
Conditions: H37Rv ATCC 27294, 672 h

Point of comparison: NC(=O)c1cc(-c2ccccc2)sc1NC(=O)Nc1ccccc1, MIC 9.27 µM (≈ 3.13 µg/mL). Against it:
- CC(C)NC(=S)Nc1sc(-c2ccccc2)cc1C(N)=O — 2.1-fold higher, 19.6 µM (≈ 6.26 µg/mL)
- NC(=O)c1cc(-c2ccccc2)sc1NC(=O)c1ccccc1 — 1.9-fold lower, 4.84 µM (≈ 1.56 µg/mL)
- CC(C)NC(=O)Nc1sc(-c2ccccc2)cc1C(N)=O — within 1.5-fold, 10.2 µM (≈ 3.11 µg/mL)
- Cc1ccc(NC(=O)Nc2sc(-c3ccccc3)cc2C(N)=O)cc1 — 3.8-fold higher, 35.6 µM (≈ 12.5 µg/mL)
- NC(=O)c1cc(-c2ccccc2)sc1NC(=O)C1CCCCC1 — within 1.5-fold, 9.48 µM (≈ 3.11 µg/mL)
- NC(=O)c1cc(-c2ccccc2)sc1NC(=O)C1CCCC1 — 4.3-fold higher, 39.7 µM (≈ 12.5 µg/mL)
- NC(=O)c1cc(-c2ccccc2)sc1NC(=S)Nc1ccc(Cl)cc1 — 8.7-fold higher, 80.7 µM (≈ 31.3 µg/mL)
- CCCC(=O)Nc1sc(-c2ccccc2)cc1C(N)=O — within 1.5-fold, 10.8 µM (≈ 3.13 µg/mL)
- NC(=O)c1cc(-c2ccccc2)sc1NC(=O)c1cccc2ccccc12 — 2.7-fold higher, 25 µM (≈ 9.3 µg/mL)
- NC(=O)c1cc(-c2ccccc2)sc1NC(=S)NCc1ccccc1 — 3.7-fold higher, 34 µM (≈ 12.5 µg/mL)
- NC(=O)c1cc(-c2ccccc2)sc1NC(=O)NCc1ccccc1 — 2-fold higher, 18.5 µM (≈ 6.5 µg/mL)
- NC(=O)c1cc(-c2ccccc2)sc1NC(=S)Nc1ccccc1 — 7.6-fold higher, 70.8 µM (≈ 25 µg/mL)
- NC(=O)c1cc(-c2ccccc2)sc1NC(=S)Nc1ccc([N+](=O)[O-])cc1 — 8.5-fold higher, 78.5 µM (≈ 31.3 µg/mL)
- CC[C@@H](CO)NCCN[C@@H](CC)CO [ETHAMBUTOL] — within 1.5-fold, 7.64 µM (≈ 1.56 µg/mL)
- CC1COc2c(N3CCN(C)CC3)c(F)cc3c(=O)c(C(=O)O)cn1c23 (configuration not stated) [OFLOXACIN] — 4.3-fold lower, 2.16 µM (≈ 0.781 µg/mL)
- NC(=O)c1cc(-c2ccccc2)sc1NC(=O)c1ccc(Oc2ccccc2)cc1 — 1.6-fold higher, 15.1 µM (≈ 6.25 µg/mL)
- Cc1ccc(NC(=S)Nc2sc(-c3ccccc3)cc2C(N)=O)cc1 — within 1.5-fold, 8.5 µM (≈ 3.12 µg/mL)
- NC(=O)c1cc(-c2ccccc2)sc1NC(=O)Nc1ccc(Cl)cc1 — within 1.5-fold, 8.42 µM (≈ 3.13 µg/mL)
- NC(=O)c1cc(-c2ccccc2)sc1NC(=O)c1ccc(Cl)cc1 — within 1.5-fold, 8.76 µM (≈ 3.13 µg/mL)
- NC(=O)c1cc(-c2ccccc2)sc1NC(=O)c1ccc([N+](=O)[O-])cc1 — within 1.5-fold, 8.48 µM (≈ 3.12 µg/mL)
- NNC(=O)c1ccncc1 [ISONIAZID] — 14-fold lower, 0.66 µM (≈ 0.0905 µg/mL)
- NC(=O)c1cc(-c2ccccc2)sc1NC(=O)c1cnccn1 — 4.2-fold higher, 38.6 µM (≈ 12.5 µg/mL)
- CO[C@H]1/C=C/O[C@@]2(C)Oc3c(C)c(O)c4c(O)c(c(/C=N/N5CCN(C)CC5)c(O)c4c3C2=O)NC(=O)/C(C)=C\C=C\[C@H](C)[C@H](O)[C@@H](C)[C@@H](O)[C@@H](C)[C@H](OC(C)=O)[C@@H]1C [RIFAMPIN] — 40-fold lower, 0.23 µM (≈ 0.189 µg/mL)
- NC(=O)c1cc(-c2ccccc2)sc1NC(=O)Nc1ccc(Br)cc1 — 1.6-fold higher, 15 µM (≈ 6.25 µg/mL)
- NC(=O)c1cc(-c2ccccc2)sc1NC(=O)Nc1ccc([N+](=O)[O-])cc1 — 1.8-fold higher, 16.3 µM (≈ 6.24 µg/mL)
- CC(=O)Nc1sc(-c2ccccc2)cc1C(N)=O — 2.6-fold higher, 24 µM (≈ 6.26 µg/mL)
- CCC(=O)Nc1sc(-c2ccccc2)cc1C(N)=O — 2.5-fold higher, 22.8 µM (≈ 6.26 µg/mL)
- NC(=O)c1cc(-c2ccccc2)sc1NC(=S)Nc1ccc(Br)cc1 — 1.9-fold higher, 18 µM (≈ 7.78 µg/mL)
- NC(=O)c1cc(-c2ccccc2)sc1NC(=O)Nc1ccc(F)cc1 — 1.9-fold higher, 17.6 µM (≈ 6.25 µg/mL)
- NC(=O)c1cc(-c2ccccc2)sc1NC(=S)Nc1ccc(F)cc1 — 7.3-fold higher, 67.4 µM (≈ 25 µg/mL)
- NC(=O)c1cc(-c2ccccc2)sc1NC(=O)c1cc2ccccc2[nH]1 — 3.7-fold higher, 34.6 µM (≈ 12.5 µg/mL)
